Measurements published in patent US9597393B2, “Synthetic toll-like receptor-4 (TLR-4) agonist peptides” (AV Therapeutics, Inc., priority 2012, dated 2017).
“Also recorded” adds a separate entry of the source. Values belong to the substance of their own block, whether it stands above or below them. Ends that are not written are not given here.

Experiments:
TLR-4 = target: T1, TLR-4 (Homo sapiens, UniProt O00206); assay: NF-κB activation (SEAP reporter) in HEK-BLUE-4 cells; type: cell-based; conditions: peptide 1, 5 and 10 μg/ml
T1 construct: host or cells: HEK-BLUE-4 (transgenic HEK293)
Protocol: FIG. 2—LPS peptide mimics activate NF-κB in HEK-BLUE™-4. LPS peptide mimics were dissolved in endotoxin free water and added to 96-well plates at three concentrations; 1 μg/ml (black bar), 5 μg/ml (gray bar), and 10 μg/ml (white bar). HEK-BLUE™4 were then added to each well at a concentration of 5×10^4 cells per well in complete media. The supernatant was then harvested after 24 h and assayed for alkaline phosphatase secretion indicating activation of NF-κB. NF-κB activation is represented in FIG. 2A for peptides RS01-RS07 and in FIG. 2B for peptides RS08-RS12. LPS was used as a positive control in assaying all peptides for NF-κB activation. Absorbance was taken at 630 nm. Each experiment was repeated three times with similar results observed. The standard deviation shown above each sample represents three replicates in one experiment.
The twelve peptides were assayed for their ability to bind to TLR-4 and activate NF-κB using a transgenic HEK293 cell line known as HEK-BLUE™-4. This cell line is stably transfected to only express TLR-4 on its plasma membrane, with no other TLRs present. Detecting activation of NF-κB is made possible by placing secreted alkaline phosphatase (SEAP) under the control of the NF-κB promoter. Therefore, NF-κB activation leads to SEAP secretion, which is detected by an alkaline phosphatase substrate in cell culture media.
The LPS peptide mimics were dissolved in endotoxin free water (HyClone) at a concentration of 1 μg/ml with the exception of peptide 4 which was dissolved in a solution of 1% DMSO made in endotoxin free water at 1 μg/ml concentration. All of the peptide stock solutions and stored at −80° C. Each of the 12 peptides (RS01-RS12) was added to 96-well plates in triplicate in a total volume of 20 μl. The total volume required in each•well was made up with endotoxin free water (HyClone). […] After a noticeable color change, the absorbance was taken at 630 nm using the microplate reader (Bio-Rad). […]

RAW264.7 cells = assay: Inflammatory cytokine secretion from RAW264.7 macrophages (antibody array); type: cell-based, mouse; conditions: 24 h
Protocol: FIG. 5—RAW264.7 secretes inflammatory cytokines in response to RS01 and RS09. RAW264.7 cells were seeded at a density of 1×10^6 cells per well of a six well plate followed by addition of either […] (FIG. 5A) or RS09 (FIG. 5B) and incubated for 24 h after which the culture media was collected. LPS was used as a positive control for both RS01 and RS09. Culture media was then analyzed for specific cytokines using an antibody array kit. […] Each cytokine is represented as an IDV value which was calculated by comparing the density of each spot with respect to the density of the internal positive controls. The antibody array represents a qualitative comparison of each cytokine and is […]. Each experiment was repeated three times with similar results observed. […]
RAW264. […] The blots were then developed using ECL (Pierce) and detected on HyBlot CL™ autoradiography film (Denville Scientific). […]
Although the values obtained for each cytokine are not quantitative but rather qualitative, they do show an increase in release of inflammatory cytokines. These values were calculated and presented as IDV, which is the density of each spot compared to the density of the internal positive controls present on each membrane. Values for the various cytokines and chemokines detected are presented in FIG. 5A for RS01 and FIG. 5B for RS09. […]

NF-κB [1] = assay: NF-κB nuclear translocation Western blot in non-TLR-4 expressing HEK293 (negative control cells); type: cell-based; conditions: HEK293 lacking TLR-4
Protocol: FIG. 3—LPS peptide mimics lead to NF-κB nuclear translocation. Nuclear translocation studies of NF-κB were performed by Western blot analysis on both RAW264.7 (FIG. 3A), HEK-BLUE™-4 (FIG. 3B), and HEK293 (FIG. 3C) cells. Cells were stimulated with peptide, either RS01 or RS09, at a concentration of 5 μg/ml per 5×10^4 cells at various time points (15, 30, 60, and 120 min) Nuclear protein fractions were assayed for NF-κB while cytoplasmic proteins fractions were assayed for both NF-κB and IκB-α. HDAC was used as a nuclear protein loading control and actin was used as a cytoplasmic protein loading control.
For NF-KB nuclear translocation western blots, cytoplasmic and nuclear protein extracts were prepared from HEK-BLUE™-4, HEK293, and RAW264.7 cells (2×10^6 cells) using NE-PER, nuclear and cytoplasmic extraction reagent kit (PIERCE, Rockford, Ill.). The manufacturer's protocol was followed to separate cytoplasmic and nuclear fractions. Nuclear and cytoplasmic lysates (10 μg protein) were subjected to 12% SDS-PAGE under reducing conditions (presence of β-mercaptoethanol). […] After four washes with TBST and one wash with TBS, membranes were developed by ECL (Pierce) and detected on HyBlot CL™ autoradiography film (Denville Scientific, Inc, Metuchen, N.J.). […]

NF-κB [2] = assay: Fluorescence microscopy of NF-κB nuclear translocation in RAW264.7; type: cell-based; conditions: 5 μg/ml, 30 min
Protocol: FIG. 4—Fluorescence microscopy of NF-κB nuclear translocation. RAW264.7 macrophages were seeded in 8 well chamber slides at a density of 2×10^4 cells per well and stimulated with 5 μg/ml of either RS01 or RS09. After 30 min incubation, cells were fixed (4% para-formaldehyde), permeabilized (0.2% TRITON® X-100), blocked (10% goat serum/1% BSA), and incubated with anti-NF-κB followed by DAPI staining of nuclei. The stained cells were visualized using the Axiovert 200 M microscope with a 40× magnification. NF-KB (green) was more diffusely spread throughout the cytoplasm in control cells but appeared more circular in RS01, RS09, and LPS treated cells.
HEK-BLUE™-4 and RAW264.7 cells were seeded in 8-chamber slides (BD Biosciences, Bedford, Mass.) at a density of 2×10^4 cells per well. Cells were allowed to adhere at 37° C. over night after which the cells were stimulated with LPS peptide mimics at various time points and subsequently processed for immunofluorescence. The cells were fixed with a 4% paraformaldehyde/PBS solution, followed by permeabilization with 0.2% TRITON® X-100, and blocked using a solution of 0.1% TRITON® X-100, 1% BSA, and 10% goat serum. […]

prostate tumor = conditions: in vivo, administered with an adjuvant; cited from earlier work
[3] = Immunogenicity of the adjuvant peptide itself in mice; type: in vivo; conditions: two groups of 3 mice vaccinated with 25 ng of peptide alone; data not shown
Text: This significant increase in X-15 specific antibody concentration with RS09 was observed on day 28 (white bar) post vaccination as shown in FIG. 6. […] Thus, while RS01 and RS09 were not immunogenic at the concentration used, RS09 was capable of enhancing production of X-15 specific antibodies.

[4] = Water solubility of peptide stock; type: physicochemical; conditions: endotoxin free water; dissolved in 1% DMSO instead
Protocol: The LPS peptide mimics were dissolved in endotoxin free water (HyClone) at a concentration of 1 μg/ml with the exception of peptide 4 which was dissolved in a solution of 1% DMSO made in endotoxin free water at 1 μg/ml concentration. All of the peptide stock solutions and stored at −80° C. Each of the 12 peptides (RS01-RS12) was added to 96-well plates in triplicate in a total volume of 20 μl. The total volume required in each•well was made up with endotoxin free water (HyClone). 5×10^4 HEK-BLUE™-4 cells (Invivogen, San Diego, Calif.) were added per well and incubated for approximately 20 h after which the supernatant from each well was collected and placed into a new 96-well plate. 180 μl of HEK-BLUE™ detection media (Invivogen), alkaline phosphatase detection substrate, was added to each well and incubated for 1-3 h at 37° C. After a noticeable color change, the absorbance was taken at 630 nm using the microplate reader (Bio-Rad).
For all peptides, three concentrations, 1 μg/ml (black bars), 5 μg/ml (gray bars), and 10 μg/ml (white bars) were used to activate HEK-BLUE™-4 cells. LPS (0.1 μg/ml) was used as a positive control.

T1 sequence (O00206 24-839): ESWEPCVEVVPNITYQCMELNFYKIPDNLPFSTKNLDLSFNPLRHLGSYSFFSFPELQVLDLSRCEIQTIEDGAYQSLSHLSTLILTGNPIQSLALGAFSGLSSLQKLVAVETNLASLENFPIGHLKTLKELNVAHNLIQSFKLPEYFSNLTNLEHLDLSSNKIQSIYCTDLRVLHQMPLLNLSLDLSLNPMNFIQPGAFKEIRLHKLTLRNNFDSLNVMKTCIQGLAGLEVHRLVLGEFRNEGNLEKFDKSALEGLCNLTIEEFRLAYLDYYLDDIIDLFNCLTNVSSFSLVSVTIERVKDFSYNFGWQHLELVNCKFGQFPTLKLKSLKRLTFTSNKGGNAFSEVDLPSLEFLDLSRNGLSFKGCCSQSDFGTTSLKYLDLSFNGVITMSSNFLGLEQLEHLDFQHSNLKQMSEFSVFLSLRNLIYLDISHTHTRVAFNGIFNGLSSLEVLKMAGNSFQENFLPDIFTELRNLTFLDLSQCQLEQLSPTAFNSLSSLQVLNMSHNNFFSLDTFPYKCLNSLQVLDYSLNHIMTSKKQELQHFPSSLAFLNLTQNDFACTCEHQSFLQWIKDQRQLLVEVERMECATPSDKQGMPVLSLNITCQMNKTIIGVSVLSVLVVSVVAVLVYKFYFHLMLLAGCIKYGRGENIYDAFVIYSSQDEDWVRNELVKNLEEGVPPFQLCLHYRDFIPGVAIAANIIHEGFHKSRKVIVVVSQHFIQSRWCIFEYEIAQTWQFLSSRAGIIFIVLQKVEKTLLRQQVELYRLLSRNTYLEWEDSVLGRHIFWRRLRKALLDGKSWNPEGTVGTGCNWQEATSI
T1 sequence (Q9Y6Y9 17-160 partner limits assumed): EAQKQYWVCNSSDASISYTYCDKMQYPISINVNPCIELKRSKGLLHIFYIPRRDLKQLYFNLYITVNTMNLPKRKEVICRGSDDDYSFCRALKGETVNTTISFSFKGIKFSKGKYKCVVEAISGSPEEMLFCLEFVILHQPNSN

Substance: SMPNPMV [RS03]
TLR-4 stimulation and NF-κB activation (alkaline phosphatase secretion, absorbance 630 nm) (TLR-4): considered as TLR-4 stimulating and hence activators of NF-κB

Substance: ELAPDSP [RS12]
TLR-4 stimulation and NF-κB activation (alkaline phosphatase secretion, absorbance 630 nm) (TLR-4): considered as positive for TLR-4 stimulation and NF-κB activation

Substance: Lipopolysaccharide [LPS]
secretion of inflammatory cytokines and chemokines (IDV, qualitative) (RAW264.7 cells): capable of inducing inflammatory cytokines and chemokines
NF-κB nuclear translocation (NF-κB [1]): do not activate the non-TLR-4 expressing HEK293 cells; also recorded: did not result in nuclear translocation
NF-κB nuclear localization (immunofluorescence, DAPI merge) (NF-κB [2]): nuclear localization of NF-κB was observed

Substance: VVPTPPY [RS11]
TLR-4 stimulation and NF-κB activation (alkaline phosphatase secretion, absorbance 630 nm) (TLR-4): considered as positive for TLR-4 stimulation and NF-κB activation

Substance: GQWQSGDRYWMETST (also: KLH conjugate) [Peptide X-15]
prostate tumor protective properties (prostate tumor): possess prostate tumor protective properties in vivo

antibody response to the adjuvant peptide (immunogenicity) [3]: no antibodies were produced
Substance: APPHALS [RS09, Ala Pro Pro His Ala Leu Ser]

Substance: GLQQVLL [RS04, Gly Leu Gln Gln Val Leu Leu]
water solubility [4]: not water soluble

Substance: QEINSSY [RS01, Gln Glu Ile Asn Ser Ser Tyr]
antibody response to the adjuvant peptide (immunogenicity) [3]: no antibodies were produced
